The values below come from patent publication US8778915B2, “Method for the treatment of central nervous system cancers and compositions related thereto” (Emory University, priority 2010, dated 2014).

Test [1] deals with PC-12 cells. The experiment in a line: Survival of PC-12 cells treated with cyclodextrin. It is filed as cell-based. The settings on record: 48 h, very high concentration (320 uM). The protocol:
PC-12 cells were treated with different concentrations of cyclodextrin for 48 h. The values are expressed as mean±SD of duplicate samples. This experiment was done to answer the question if any compound can kill tumor cells at high doses. B-Cyclodextrin is an inert compound and used as a vehicle for Progesterone.

The test system of test [2] is glioblastoma. The settings on record: first study; cited from earlier work.
The test system of test [3] is U87MG glioblastoma cell line. The experiment in a line: Morphology of glioblastoma cells, phase contrast microscope. The class given is cell-based, human. Particulars: high concentrations (40, 80 and 160 μM).
In test [4] the test system is human neuroblastoma (SK-N-AS) cells. The experiment in a line: Cell viability, repeated daily exposure for 3 and 6 days, neuroblastoma cells. It is filed as cell-based. The settings on record: 0.1-160 μM. The protocol:
Analysis of variance (ANOVA) followed by a Dunnett test was used to compare treatment groups to controls. […] Values were expressed as means±SD of three experiments.
FIG. 3 show the effects of PROG exposure for 3 and 6 days on the viability of Neuroblastoma cells (SK-N-AS). Cells were exposed to different concentrations of PROG (0.1, 1, 5, 10, 20, 80, 160 μM) daily for 3 days and 6 days. The statistical analysis of data was performed with analysis of variance (ANOVA) followed by Dunnett test to compare several treatment group to a single control group. The significance of results was set at P<0.05. Values are expressed as Means±SD of three experiments. Significant difference *P<0.05 when compared to control.

Test [5] concerns human glioblastoma cell line U87dEGFR. Description: Cell viability, repeated exposure, glioblastoma-2 cells. It is filed as cell-based. The method, then: (§1) Cells were exposed to different concentrations of PROG daily for 3 days and 6 days by replacing culture medium containing PROG. The stock solution of PROG was prepared in DMSO (Final concentration: <5 μl/ml medium). Data were analyzed using analysis of variance (ANOVA) followed by Dunnett's test. Values are expressed as Means±SD of two independent experiments with duplicate samples. Significant difference *P<0.05 when compared to control values.

In test [6] the test system is human neuroblastoma xenograft. Description: Mouse xenograft model of human neuroblastoma. The class given is in vivo, female athymic nude mice. Particulars: after 8 days of treatment. The source says:
The vehicle group received saline only. Data were normalized to the baseline values (day 1) and expressed as percent change in daily tumor growth. […] The vehicle group received saline only. Values are expressed as mean tumor size for the different animals in each group. The significance of results was set at P<0.05 two-tailed. Values are expressed as % change in Means±SEM of tumor volume in different groups. […] Tumors were allowed to grow to ˜200 to 250 mm^3 and mice were divided into groups. […] This regimen was planned to be continued for up to two weeks to examine maximum tumor burden. All treated animals are being compared to appropriate controls for analysis of rate of daily tumor growth, tumor volume and regression. Toxicity is being assessed daily by survival, activity and body weight.

The test system of test [7] is breast cancer. Particulars: single injection of depot progesterone prior to breast cancer therapy, over 1000 women, 65 months after diagnosis and treatment; cited from earlier work.
The test system of test [8] is neuroblastoma cells. The settings on record: 10 μM; cited from earlier work.
In test [9] the test system is human neuroblastoma (SK-N-AS) cells. Description: MTT cell viability, single 48 h exposure, neuroblastoma cells. It is filed as cell-based. Particulars: single exposure 48 hours, at 5 μM and 10 μM, P<0.05 compared to control. The method, then:
Data were evaluated by analysis of variance (ANOVA) followed by Dunnett test for individual comparisons. […] Values were expressed as means±SD of three experiments.
The human neuroblastoma cells (SK-N-AS) were cultured in a DMEM medium and E18 rat primary cortical neurons were cultured for 8-10 days in Neurobasal medium. […] An MTT reduction assay was used to estimate cell viability.

Test [10] relates to human glioblastoma cell line U87MG. Description: Cell viability, repeated exposure, glioblastoma-1 cells. The class given is cell-based. The protocol:
as §1

Setting [11] is: repeated exposure 3 and 6 days, high doses.

In the case of `OC[C@H]1O[C@@H]2O[C@H]3[C@H](O)[C@@H](O)[C@@H](O[C@H]4[C@H](O)[C@@H](O)[C@@H](O[C@H]5[C@H](O)[C@@H](O)[C@@H](O[C@H]6[C@H](O)[C@@H](O)[C@@H](O[C@H]7[C@H](O)[C@@H](O)[C@@H](O[C@H]8[C@H](O)[C@@H](O)[C@@H](O[C@H]1[C@H](O)[C@H]2O)O[C@@H]8CO)O[C@@H]7CO)O[C@@H]6CO)O[C@@H]5CO)O[C@@H]4CO)O[C@@H]3CO` [B-Cyclodextrin], the cell death result in test [1] is reported as “could not induce cell death”.
“Avastin: Avastin (bevacizumab), FDA approved to treat glioblastoma at progression after standard therapy”: in test [2], the “patients who survived for at least 6 months without disease progressing” value is 43%, the “patients who survived for at least one year” value is 38% and the “patients with tumor shrinkage” value was 28%.
In the case of `CC(=O)[C@H]1CC[C@H]2[C@@H]3CCC4=CC(=O)CC[C@]4(C)[C@H]3CC[C@]12C` [progesterone, pregn-4-ene-3,20-dione], in [3], the “changes in cell morphology” value was “lose their original shape, become detached from the surface, and eventually die”. Further, the cell death result is reported as “significant (P<0.05) cell death in a concentration dependant manner” in test [4] (daily exposure for 3 days) and “cell death (P<0.05) was observed” in test [4] (daily exposure for 6 days, concentration dependant). Further, the “effectiveness of six days versus 3 days of treatment” value in [5] (repeated exposure) and in [10] (repeated exposure) was “more effective than 3 days” in each case. The cell viability entry in test [5] (setting [11]) is recorded as “killed both glioblastoma cell lines in a dose dependant manner”; in test [8] it was “significant decrease in cell viability”; in test [10] (setting [11]), “killed both glioblastoma cell lines in a dose dependant manner”. Further, the “reduction of rate of tumor growth compared to saline vehicle” value in test [6] (50 mg/kg peritumoral injection once daily) and in test [6] (100 mg/kg peritumoral injection once daily) was roughly 50% in each case. For the same compound, the reduction of mortality result in test [7] is given as “more than 35%”. The “cell death (MTT cell viability)” value in [9] is reported as “significant cell death”.
